Source: patent US9040519B2, “Fused tetracyclic pyrido [4,3-B] indole and pyrido [3,4-B] indole derivatives and methods of use” (Medivation Technologies, Inc., priority 2010, dated 2015)

Tests used:
[1] = molecular target: T1, human recombinant serotonin (5-Hydroxytryptamine) 5-HT2C receptor (Homo sapiens, UniProt P28335); assay: Serotonin 5-HT2C radioligand binding ([3H]Mesulergine); conditions: compound at 0.1 μM; CHO K1 cells; read-out: Percentage inhibition of ligand binding, Serotonin 5-HT2C
T1 construct: expressed in transfected cells; host or cells: CHO-K1
T1 sequence (P28335 33-458): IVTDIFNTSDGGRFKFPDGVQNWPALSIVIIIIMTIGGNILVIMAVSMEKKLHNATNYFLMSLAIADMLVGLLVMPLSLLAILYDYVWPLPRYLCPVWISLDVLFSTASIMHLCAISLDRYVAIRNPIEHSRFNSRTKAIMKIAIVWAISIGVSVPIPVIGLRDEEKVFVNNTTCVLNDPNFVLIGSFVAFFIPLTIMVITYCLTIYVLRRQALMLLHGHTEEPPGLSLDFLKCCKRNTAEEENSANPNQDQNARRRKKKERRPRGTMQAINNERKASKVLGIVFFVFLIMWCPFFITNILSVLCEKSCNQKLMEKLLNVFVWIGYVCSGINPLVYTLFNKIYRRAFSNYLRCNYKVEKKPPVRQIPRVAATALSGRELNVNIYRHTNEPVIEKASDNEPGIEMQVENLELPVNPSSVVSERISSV
Method: To evaluate in radioligand binding assays the activity of compounds of the invention, human recombinant serotonin (5-Hydroxytryptamine) 5-HT2C receptor expressed in Chinese hamster ovary (CHO) K1 cells (Wolf, W. et al, J. Neurochem. 69:1449, 1997) in a modified Tris-HCl buffer (50 mM Tris-HCl, pH 7.4, 0.1% Ascorbic Acid, 10 μM Pargyline) was used. Compounds of the invention were incubated with 1 nM [^3H]Mesulergine for 60 min at 25° C. Non-specific binding was estimated in the presence of 1 μM Mianserin. Receptor proteins were filtered and washed, the filters were then counted to determine [^3H]Mesulergine specifically bound. Compounds were screened at 1 μM or lower, using 1% DMSO as vehicle. Biochemical assay results are presented as the percent inhibition of specific binding in Table 4.

[2] = molecular target: T2, human recombinant histamine H1 receptor (Homo sapiens, UniProt P35367); assay: Histamine H1 radioligand binding ([3H]Pyrilamine); conditions: compound at 0.1 μM; 1.2 nM [3H]Pyrilamine; CHO K1 cells; read-out: Histamine H1 Binding (0.1 μM), percentage inhibition
T2 construct: expressed in transfected cells; host or cells: CHO-K1
T2 sequence (P35367 whole entry): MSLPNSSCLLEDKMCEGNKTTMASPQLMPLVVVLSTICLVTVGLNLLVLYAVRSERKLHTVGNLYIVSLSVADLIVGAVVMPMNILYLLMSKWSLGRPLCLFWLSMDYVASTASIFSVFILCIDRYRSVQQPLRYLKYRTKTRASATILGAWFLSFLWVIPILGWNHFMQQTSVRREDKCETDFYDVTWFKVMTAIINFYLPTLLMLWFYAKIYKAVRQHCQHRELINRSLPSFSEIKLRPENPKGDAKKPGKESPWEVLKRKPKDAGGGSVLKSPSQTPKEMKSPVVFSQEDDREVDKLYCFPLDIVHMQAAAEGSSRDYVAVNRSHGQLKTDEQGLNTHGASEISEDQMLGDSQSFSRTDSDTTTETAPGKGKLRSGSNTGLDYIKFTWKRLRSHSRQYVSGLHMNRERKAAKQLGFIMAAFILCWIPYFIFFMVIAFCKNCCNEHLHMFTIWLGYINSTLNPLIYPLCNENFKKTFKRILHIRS
Method: To evaluate in radioligand binding assays the activity of compounds of the invention, human recombinant histamine H1 receptor expressed in Chinese hamster ovary (CHO) K1 cells (De Backer, M. et al, Biochem. Biophys. Res. Comm. 197(3):1601, 1993) in a modified Tris-HCl buffer (50 mM Tris-HCl, pH 7.4, 2 mM MgCl2, 100 mM NaCl, 250 mM Sucrose) was used. Compounds of the invention were incubated with 1.2 nM [^3H]Pyrilamine for 180 min at 25° C. Non-specific binding was estimated in the presence of 1 μM Pyrilamine. Receptor proteins were filtered and washed, the filters were then counted to determine [^3H]Pyrilamine specifically bound. Compounds were screened at 1 μM or lower, using 1% DMSO as vehicle. Biochemical assay results are presented as the percent inhibition of specific binding in Table 2.

[3] = molecular target: T3, rat adrenergic α1A receptor (Rattus norvegicus, UniProt P43140); assay: Adrenergic α1A radioligand binding ([3H]Prazosin); conditions: compound at 0.1 μM; Wistar Rat submaxillary glands; read-out: Percentage inhibition of ligand binding, Adrenergic α1A
T3 construct: rat adrenergic α1A receptor obtained from Wistar Rat submaxillary glands; from tissue; host or cells: Wistar rat submaxillary glands
T3 sequence (P43140 1-466): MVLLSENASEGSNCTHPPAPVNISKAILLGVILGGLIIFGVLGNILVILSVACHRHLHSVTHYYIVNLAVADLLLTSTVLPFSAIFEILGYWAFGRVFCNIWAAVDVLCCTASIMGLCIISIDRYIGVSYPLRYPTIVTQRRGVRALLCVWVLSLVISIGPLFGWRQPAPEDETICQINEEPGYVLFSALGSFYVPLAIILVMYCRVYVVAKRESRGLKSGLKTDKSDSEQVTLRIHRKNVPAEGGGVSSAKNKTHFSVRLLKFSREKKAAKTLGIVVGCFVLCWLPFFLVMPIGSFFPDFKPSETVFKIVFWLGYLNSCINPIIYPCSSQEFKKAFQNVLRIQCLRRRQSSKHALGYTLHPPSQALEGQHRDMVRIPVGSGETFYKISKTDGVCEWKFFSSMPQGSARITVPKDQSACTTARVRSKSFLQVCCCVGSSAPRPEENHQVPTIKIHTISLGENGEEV
Method: To evaluate in radioligand binding assays the activity of compounds of the invention, rat adrenergic α1A receptor obtained from Wistar Rat submaxillary glands (Michel, A. et al, Br. J. Pharmacol. 98:883, 1989) in a modified Tris-HCl buffer (50 mM Tris-HCl buffer, pH 7.4, 0.5 mM EDTA) was used. Compounds of the invention were incubated with 0.25 nM [^3H]Prazosin for 60 min at 25° C. Non-specific binding was estimated in the presence of 10 μM phentolamine. Receptor proteins were filtered and washed, the filters were then counted to determine [^3H]Prazosin specifically bound. Compounds of the invention were screened at 1 μM or lower, using 1% DMSO as vehicle. Biochemical assay results are presented as the percent inhibition of specific binding in Table 3.

[4] = molecular target: T4, human recombinant serotonin (5-Hydroxytryptamine) 5-HT6 receptor (Homo sapiens, UniProt P50406); assay: Serotonin 5-HT6 radioligand binding ([3H]LSD); conditions: compound at 0.1 μM; HeLa cells; read-out: Percentage inhibition of ligand binding, Serotonin 5-HT6
T4 construct: expressed in transfected cells; host or cells: HeLa
T4 sequence (P50406 whole entry): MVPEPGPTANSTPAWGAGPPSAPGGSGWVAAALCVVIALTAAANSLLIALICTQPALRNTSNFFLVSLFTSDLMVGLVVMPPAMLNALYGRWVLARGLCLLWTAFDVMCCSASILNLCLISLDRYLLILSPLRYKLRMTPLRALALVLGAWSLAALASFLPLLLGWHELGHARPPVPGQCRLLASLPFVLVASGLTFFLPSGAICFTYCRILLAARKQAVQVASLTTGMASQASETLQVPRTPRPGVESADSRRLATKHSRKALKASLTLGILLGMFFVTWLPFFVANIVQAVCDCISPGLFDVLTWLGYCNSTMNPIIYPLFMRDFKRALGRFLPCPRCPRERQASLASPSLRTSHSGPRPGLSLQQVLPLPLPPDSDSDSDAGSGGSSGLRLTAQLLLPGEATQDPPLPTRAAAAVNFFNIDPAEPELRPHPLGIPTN
Method: To evaluate in radioligand binding assays the activity of compounds of the invention, human recombinant serotonin (5-Hydroxytryptamine) 5-HT6 receptor expressed in human HeLa cells (Monsma, F. Jr. et al, Mol. Pharmacol. 43:320, 1993) in a modified Tris-HCl buffer (50 mM Tris-HCl, pH 7.4, 150 mM NaCl, 2 mM Ascorbic Acid, 0.001% BSA) was used. Compounds of the invention were incubated with 1.5 nM [3H]Lysergic acid diethylamide (LSD) for 120 min at 37° C. Non-specific binding was estimated in the presence of 5 μM Serotonin (5-HT). Receptor proteins were filtered and washed, the filters were then counted to determine [3H]LSD specifically bound. Compounds were screened at 1 μM or lower, using 1% DMSO as vehicle. Biochemical assay results are presented as the percent inhibition of specific binding in Table 4.

| SMILES | inhibition at 0.1 µM [1] | inhibition at 0.1 µM [2] | inhibition at 0.1 µM [3] | inhibition at 0.1 µM [4] |
| --- | --- | --- | --- | --- |
| Cc1ccc2c(c1)c1c3n2C(c2ccccc2)=CCC3(C)CN(C)C1 (stereo not drawn) [Compound 10, 2,3a,10-trimethyl-6-phenyl-2,3,3a,4-tetrahydro-1H-indolo[3,2,1-ij][1,6]naphthyridine] | 17% | 3% | -4% | 7% |
| Cc1ccc2c(c1)c1c3n2CC(c2ccncc2)=CCC3(C)CN(C)C1 (stereo not drawn) [Compound 11, 2,3a,10-trimethyl-6-pyridin-4-yl-1,2,3,3a,4,7-hexahydro-2,7a-diaza-cyclohepta[jk]fluorene] | 7% | 2% | 25% | 5% |
| Cc1ccc2c(c1)c1c3n2C(c2ccccc2)CCC3(C)CN(C)C1 (stereo not drawn) [Compound 12, 2,3a,10-trimethyl-6-phenyl-2,3,3a,4,5,6-hexahydro-1H-indolo[3,2,1-ij][1,6]naphthyridine] | 11% | 20% | 12% | 21% |
